From the NIST ThermoML archive (doi:10.1016/j.fluid.2017.12.010)

Test: xn = mol fraction of the nth substance listed
Details: Liquid, Vibrating tube method

CCCCCCCCCCCC [dodecane] + CCCCCCCCCC
Details	mass density [kg/m3]
283.29 K, 100 kPa, x2 = 0	756
283.29 K, 1000 kPa, x2 = 0	757
283.29 K, 3000 kPa, x2 = 0	758
283.3 K, 5000 kPa, x2 = 0	760
283.3 K, 10000 kPa, x2 = 0	763
283.3 K, 30000 kPa, x2 = 0	775
283.3 K, 40000 kPa, x2 = 0	780
283.3 K, 50000 kPa, x2 = 0	785
283.3 K, 60000 kPa, x2 = 0	790
283.31 K, 20000 kPa, x2 = 0	769
283.31 K, 70000 kPa, x2 = 0	795
283.32 K, 80000 kPa, x2 = 0	799
283.32 K, 90000 kPa, x2 = 0	803
283.46 K, 100 kPa, x2 = 0.4436	748
283.47 K, 1000 kPa, x2 = 0.4436	749
283.47 K, 5000 kPa, x2 = 0.4436	752
283.48 K, 10000 kPa, x2 = 0.4436	755
283.48 K, 20000 kPa, x2 = 0.4436	762
283.48 K, 40000 kPa, x2 = 0.4436	773
283.49 K, 30000 kPa, x2 = 0.4436	767
283.49 K, 60000 kPa, x2 = 0.4436	783
283.49 K, 80000 kPa, x2 = 0.4436	792
283.49 K, 100000 kPa, x2 = 0.4436	801
283.52 K, 100 kPa, x2 = 0.2297	752
283.52 K, 1000 kPa, x2 = 0.2297	753
283.52 K, 5000 kPa, x2 = 0.2297	755
283.52 K, 10000 kPa, x2 = 0.2297	759
283.52 K, 20000 kPa, x2 = 0.2297	765
283.52 K, 30000 kPa, x2 = 0.2297	771
283.52 K, 40000 kPa, x2 = 0.2297	776
283.53 K, 60000 kPa, x2 = 0.2297	786
283.53 K, 80000 kPa, x2 = 0.2297	796
283.54 K, 100000 kPa, x2 = 0.2297	804
283.57 K, 1000 kPa, x2 = 0.7841	743
283.58 K, 100 kPa, x2 = 0.7841	742
283.59 K, 5000 kPa, x2 = 0.7841	745
283.6 K, 10000 kPa, x2 = 0.7841	749
283.61 K, 100 kPa, x2 = 0.6433	745
283.61 K, 1000 kPa, x2 = 0.6433	745
283.61 K, 20000 kPa, x2 = 0.7841	755
283.61 K, 30000 kPa, x2 = 0.7841	761
283.61 K, 40000 kPa, x2 = 0.7841	767
283.61 K, 60000 kPa, x2 = 0.7841	777
283.61 K, 80000 kPa, x2 = 0.7841	787
283.61 K, 100000 kPa, x2 = 0.7841	795
283.62 K, 5000 kPa, x2 = 0.6433	748
283.62 K, 10000 kPa, x2 = 0.6433	752
283.62 K, 20000 kPa, x2 = 0.6433	758
283.62 K, 30000 kPa, x2 = 0.6433	764
283.62 K, 40000 kPa, x2 = 0.6433	770
283.62 K, 60000 kPa, x2 = 0.6433	780
283.62 K, 80000 kPa, x2 = 0.6433	789
283.62 K, 100000 kPa, x2 = 0.6433	798
293.17 K, 100 kPa, x2 = 0	749
293.18 K, 1000 kPa, x2 = 0	750
293.19 K, 5000 kPa, x2 = 0	753
293.19 K, 10000 kPa, x2 = 0	756
293.19 K, 20000 kPa, x2 = 0	763
293.19 K, 30000 kPa, x2 = 0	769
293.19 K, 40000 kPa, x2 = 0	774
293.19 K, 50000 kPa, x2 = 0	780
293.19 K, 70000 kPa, x2 = 0	789
293.19 K, 80000 kPa, x2 = 0	794
293.19 K, 90000 kPa, x2 = 0	798
293.19 K, 100000 kPa, x2 = 0	802
293.2 K, 60000 kPa, x2 = 0	785
293.43 K, 10000 kPa, x2 = 0.4436	749
293.43 K, 20000 kPa, x2 = 0.4436	755
293.43 K, 30000 kPa, x2 = 0.2297	765
293.43 K, 30000 kPa, x2 = 0.4436	761
293.43 K, 40000 kPa, x2 = 0.2297	771
293.43 K, 40000 kPa, x2 = 0.4436	767
293.43 K, 60000 kPa, x2 = 0.2297	781
293.43 K, 60000 kPa, x2 = 0.4436	778
293.43 K, 80000 kPa, x2 = 0.4436	787
293.43 K, 100000 kPa, x2 = 0.4436	796
293.44 K, 100 kPa, x2 = 0.4436	741
293.44 K, 1000 kPa, x2 = 0.4436	742
293.44 K, 5000 kPa, x2 = 0.4436	745
293.44 K, 20000 kPa, x2 = 0.2297	759
293.44 K, 80000 kPa, x2 = 0.2297	790
293.44 K, 100000 kPa, x2 = 0.2297	799
293.45 K, 100 kPa, x2 = 0.2297	745
293.45 K, 1000 kPa, x2 = 0.2297	746
293.45 K, 5000 kPa, x2 = 0.2297	749
293.45 K, 10000 kPa, x2 = 0.2297	752
293.51 K, 100000 kPa, x2 = 0.6433	793
293.52 K, 100 kPa, x2 = 0.6433	738
293.52 K, 1000 kPa, x2 = 0.6433	738
293.52 K, 5000 kPa, x2 = 0.6433	741
293.52 K, 10000 kPa, x2 = 0.6433	745
293.52 K, 20000 kPa, x2 = 0.6433	752
293.52 K, 30000 kPa, x2 = 0.6433	758
293.52 K, 40000 kPa, x2 = 0.6433	764
293.52 K, 60000 kPa, x2 = 0.6433	774
293.52 K, 80000 kPa, x2 = 0.6433	784
293.53 K, 60000 kPa, x2 = 0.7841	772
293.53 K, 80000 kPa, x2 = 0.7841	781
293.53 K, 100000 kPa, x2 = 0.7841	790
293.54 K, 100 kPa, x2 = 0.7841	735
293.54 K, 1000 kPa, x2 = 0.7841	735
293.54 K, 5000 kPa, x2 = 0.7841	738
293.54 K, 10000 kPa, x2 = 0.7841	742
293.54 K, 20000 kPa, x2 = 0.7841	749
293.54 K, 30000 kPa, x2 = 0.7841	755
293.54 K, 40000 kPa, x2 = 0.7841	761
303.04 K, 30000 kPa, x2 = 0	762
303.04 K, 100000 kPa, x2 = 0	797
303.05 K, 100 kPa, x2 = 0	742
303.05 K, 1000 kPa, x2 = 0	743
303.05 K, 5000 kPa, x2 = 0	746
303.05 K, 20000 kPa, x2 = 0	756
303.05 K, 50000 kPa, x2 = 0	774
303.05 K, 60000 kPa, x2 = 0	779
303.05 K, 70000 kPa, x2 = 0	784
303.05 K, 80000 kPa, x2 = 0	789
303.05 K, 90000 kPa, x2 = 0	793
303.06 K, 10000 kPa, x2 = 0	749
303.06 K, 40000 kPa, x2 = 0	768
